# Tests used:
# [1] = test system: lipoprotein lipase associated with 3T3-L1 adipocytes; test: Heparin-releasable lipoprotein lipase (LPL) activity in 3T3-L1 adipocyte cultures; format: cell-based; settings: for potency in reducing LPL (rank order, in words): FIG. 5B, 20–24 hours, all test compounds at 100 μM; for LPL activity (in words): CLA 100 μM, aspirin 100 μM
# Experimental: Using the same model, the effects on LPL of aspirin and NDGA, as compared to CLA, were tested. 3T3-L1 preadipocytes were cultured as described. […] Briefly, 3T3-L1 preadipocytes were grown to confluence at 37° C. in Dulbecco's Modified Eagle's Medium (DMEM) with 10% fetal bovine serum (FBS). At two days post-confluence (designated “day 0”) cell differentiation was induced with a mixture of methylisobutylxanthine (0.5 mM), dexamethasone (0.25 μM), and insulin (1 μg/ml) in DMEM containing 10% FBS. On “day 2” this medium was replaced with DMEM medium containing 10% FBS and insulin only. On “day 4” and thereafter the medium was DMEM plus 10% FBS only; this medium was subsequently replaced with fresh medium at 2 day intervals.
# First, aspirin was tested along with PGE2, which is the final product of cyclooxygenase. Cells were treated with testing compounds for 4 hours before harvesting at day 6 or 7 post differentiation. The concentration of CLA, aspirin, and PGE2 were 1×10^−4 M, 1×10^−4 M, and 1×10^−6 M respectively. […] All dishes (including control) contained the same concentration of albumin (1×10^−4 M) and ethanol (final concentration of 0.1%).
# Heparin-releasable lipoprotein lipase (LPL) activity (EC 3.1.1.34, 10 U heparin/ml media for 1 hr at 37° C.) was measured as described. Nilsson-Ehle, P. and M. C. […] Protein was determined using Bio-Rad DC Protein assay kit.
# In a next set of cell culture experiments, shown in FIG. 4, cells were treated with testing compounds for 20–24 hours at day 7 post differentiation. […] CLA was complexed with albumin, and aspirin and NDGA were dissolved in ethanol. All dishes including control contained the same concentration of albumin (1×10^−4 M) and ethanol (final concentration of 0.05%). Numbers are mean±S.E. (n=7–8, collected from 2 independent experiments).
# (§1) Cells were treated with other known lipoxygenase inhibitors. Cells were treated with testing compounds for 20–24 hours at day 6 or 7 post differentiation. Based on the ED50 of these inhibitors, various doses were first tested. In FIG. 5A, the concentration of SHA, CLA, ETYA, indomethacin, NDGA and AA861 were 1×10^−3 M, 1×10^−4 M, 1×10^−4 M, 1×10^−4 M, 1×10^−5 M and 1×10^−6 M, respectively. In FIG. 5B, the cells were treated with the test compounds at 1×10^−4 M. CLA was complexed with albumin and others were dissolved in ethanol. All dishes including control contained the same concentration of albumin (1×10^−4 M) and ethanol (final concentration of 0.1%). Numbers are mean±S.E. (in FIG. 5A, n=7–8, collected from 2 independent experiments, in FIG. 5B, n=11–12, collected from 3 independent experiments). […] Indomethacin blocks both cyclooxygenase and lipoxygenase, the two primary enzymes in the arachidonic acid metabolic cascade.
# 3T3-L1 adipocytes [2] = test: Glycerol released from 3T3-L1 adipocytes; format: cell-based; settings: treated 20–24 hours
# Experimental: (§2) Fat reduction by CLA is partly due to inhibition of lipoprotein lipase (LPL) in adipocytes, as has been previously shown using a 3T3-L1 adipocyte cell culture model. Using the same model, the effects on LPL of aspirin and NDGA, as compared to CLA, were tested. 3T3-L1 preadipocytes were cultured as described. Frost, S. C. and M. D. Lane, J. Biol. Chem. 260: 2646–2652(1985). Briefly, 3T3-L1 preadipocytes were grown to confluence at 37° C. in Dulbecco's Modified Eagle's Medium (DMEM) with 10% fetal bovine serum (FBS). At two days post-confluence (designated “day 0”) cell differentiation was induced with a mixture of methylisobutylxanthine (0.5 mM), dexamethasone (0.25 μM), and insulin (1 μg/ml) in DMEM containing 10% FBS. On “day 2” this medium was replaced with DMEM medium containing 10% FBS and insulin only. On “day 4” and thereafter the medium was DMEM plus 10% FBS only; this medium was subsequently replaced with fresh medium at 2 day intervals.
# as §1, with “cascade. […] When 100 μM of these were tested, the potency was AA861>NDGA>ETYA>Indomethacin>CLA. […]” for “cascade.”
# [3] = Food intake of mice on NDGA/CLA diets (Experiment 2); format: in vivo; settings: male ICR mice; for food intake, Total / food intake, Week 1 / food intake, Week 4: mean±S.E., N=5–6
# Experimental: (§3) After a 5 day adaptation period, four-week-old weanling male ICR mice (Harlan Sprague-Dawley) were randomly separated into groups that were fed one of the treatment diets for 4 weeks. Mice were fed either a control diet (as in Experiment 1), or a diet supplemented with CLA (0.1%), NDGA (0.1% or 0.005%), or CLA (0.1%) with NDGA (0.1% or 0.005%). The lower level of NDGA was chosen based on the level used as an antioxidant in the food industry. Supplemental NDGA was added to diets at the expense of sugar. Diet was stored at −20° C. until use. Mice were housed individually in a windowless room with a 12-h light-dark cycle in strict accordance to guidelines established by the Research Animal Resources Center of University of Wisconsin-Madison. Diet and water, available ad libitum, were freshly provided three times per week.
# ICR mice [4] = test: Body composition analysis of mice on NDGA/CLA diets (Experiment 2); format: in vivo; settings: male ICR mice; for % Ash / ECW (empty carcass weight): mean±S.E., N=5–6; for body composition versus control (in words): 4 weeks
# Experimental: For body composition analyses, animals were sacrificed, gut contents were removed (to obtain empty carcass weight, “ECW”), and the carcasses frozen at −20° C. Frozen carcasses were chopped, and freeze dried to determine water content. Each dried carcass was ground to give a homogeneous sample before further analysis. Total nitrogen was analyzed by the Kjeldahl method. Helrich, K., Official Methods of Analysis, 15th ed.: 935–937(1990). Carcass fat content was measured by extraction with diethyl ether overnight using a Soxhlet apparatus. Total ash content was determined by incineration (500–600° C., overnight).
# as §3
# [5] = Body weights of mice on NDGA/CLA diets (Experiment 2, FIG. 2); format: in vivo; settings: male ICR mice
# Experimental: as §3
# fat tissue = settings: reported by Gowri et al. 2000; cited from earlier work
# ICR mice [6] = test: Body composition analysis of mice on aspirin/CLA diets (Experiment 1); format: in vivo; settings: female ICR mice, 4 weeks
# Text: After a 5 day adaptation period, four-week-old weanling female ICR mice (Harlan Sprague-Dawley) were randomly separated into groups that were fed one of the treatment diets for 4 weeks. Mice were fed either a control diet, or a diet supplemented with aspirin alone (0.03%), 0.5% CLA alone, or CLA with additional aspirin (0.006% [“Asp1”] or 0.03% [“Asp2”]). The control diet was semi-purified TD94060 diet, 99% basal mix from Harlan Teklad, Madison, Wis. that contained (ingredient, g/kg): sucrose, 476; casein, “vitamin-free” test, 210; corn starch, 150; DL-methionine, 3; corn oil 55; cellulose, 50; mineral mix, AIN-76, 35; vitamin mix, AIV-76A, 10; calcium carbonate, 4; choline bitartrate, 2; and ethoxyquin, 0.1. The aspirin doses reflect an average human dose (0.03%) or a recommended dose for preventing cardiovascular disease (0.006%). Supplemental CLA was added to diets at the expense of corn oil. Diet was stored at −20° C. until use. […]
# For body composition analyses, animals were sacrificed, gut contents were removed (to obtain empty carcass weight, “ECW”), and the carcasses frozen at −20° C. […] Total nitrogen was analyzed by the Kjeldahl method. […] Carcass fat content was measured by extraction with diethyl ether overnight using a Soxhlet apparatus. Total ash content was determined by incineration (500–600° C., overnight).
# [7] = Body weights of mice on aspirin/CLA diets (Experiment 1, FIG. 1); format: in vivo; settings: female ICR mice, 0.5% CLA and/or 0.03% aspirin
# Text: After a 5 day adaptation period, four-week-old weanling female ICR mice (Harlan Sprague-Dawley) were randomly separated into groups that were fed one of the treatment diets for 4 weeks. Mice were fed either a control diet, or a diet supplemented with aspirin alone (0.03%), 0.5% CLA alone, or CLA with additional aspirin (0.006% [“Asp1”] or 0.03% [“Asp2”]). The control diet was semi-purified TD94060 diet, 99% basal mix from Harlan Teklad, Madison, Wis. that contained (ingredient, g/kg): sucrose, 476; casein, “vitamin-free” test, 210; corn starch, 150; DL-methionine, 3; corn oil 55; cellulose, 50; mineral mix, AIN-76, 35; vitamin mix, AIV-76A, 10; calcium carbonate, 4; choline bitartrate, 2; and ethoxyquin, 0.1. The aspirin doses reflect an average human dose (0.03%) or a recommended dose for preventing cardiovascular disease (0.006%). Supplemental CLA was added to diets at the expense of corn oil. Diet was stored at −20° C. until use. Mice were housed individually in a windowless room with a 12-h light-dark cycle in strict accordance to guidelines established by the Research Animal Resources Center of University of Wisconsin-Madison. Diet and water, available ad libitum, were freshly provided three times per week.
# 3T3-L1 adipocytes [8] = test: Cellular triacylglyceride (TG) in 3T3-L1 adipocytes; format: cell-based; settings: treated 20–24 hours
# Experimental: as §2
# Cells were treated with other known lipoxygenase inhibitors. Cells were treated with testing compounds for 20–24 hours at day 6 or 7 post differentiation. Based on the ED50 of these inhibitors, various doses were first tested. In FIG. 5A, the concentration of SHA, CLA, ETYA, indomethacin, NDGA and AA861 were 1×10^−3 M, 1×10^−4 M, 1×10^−4 M, 1×10^−4 M, 1×10^−5 M and 1×10^−6 M, respectively. […]
# [9] = 4 weeks diet with 0.005% NDGA, with or without 0.1% CLA
# [10] = 4 weeks diet with 0.1% CLA and/or 0.1% NDGA
# [11] = diet with 0.005% NDGA, with or without 0.1% CLA
# [12] = diet with 0.1% CLA and/or 0.1% NDGA
# [13] = 0.005% NDGA, with or without 0.1% CLA
# [14] = FIG. 4, treated 20–24 hours at day 7 post differentiation, NDGA 50 μM
# [15] = FIG. 3, treated 4 hours, day 6 or 7 post differentiation, PGE2 1 μM
compound,measurement,setting,value
"CC1=C(C)C(=O)C(CCCCC#CCCCC#CCO)=C(C)C1=O [AA861, 2-[12-hydroxydodeca-5,10-diynyl]-3,5,6-trimethyl-p-benzoquinone]","potency in reducing LPL (rank order, in words)",[1],AA861>NDGA>ETYA>Indomethacin>CLA
same,glycerol released from the cell (in words),3T3-L1 adipocytes [2],reduced the glycerol release
"CCCCCC#CCC#CCC#CCC#CCCCC(=O)O [ETYA, 5,8,11,14-eicosatetraynoic acid]","potency in reducing LPL (rank order, in words)",[1],AA861>NDGA>ETYA>Indomethacin>CLA
"COc1ccc2c(c1)c(CC(=O)O)c(C)n2C(=O)c1ccc(Cl)cc1 [Indomethacin, indomethacin]","potency in reducing LPL (rank order, in words)",[1],AA861>NDGA>ETYA>Indomethacin>CLA
"CC(Cc1ccc(O)c(O)c1)C(C)Cc1ccc(O)c(O)c1 (stereo not drawn) [NDGA, nordihydroguaiaretic acid]","food intake, Total",[3]; [9],136.3 ± 1.3 g/mouse
same,"food intake, Total",[3]; [10],137.9 ± 1.9 g/mouse
same,"food intake, Week 1",[3]; [11],33.8 ± 0.6 g/mouse
same,"food intake, Week 4",[3]; [11],34.0 ± 0.4 g/mouse
same,"food intake, Week 1",[3]; [12],35.2 ± 0.7 g/mouse
same,"food intake, Week 4",[3]; [12],33.8 ± 1.0 g/mouse
same,% Ash,ICR mice [4]; [9],3.29 ± 0.12%
same,ECW (empty carcass weight),ICR mice [4]; [9],32.2 ± 0.6 g
same,% Ash,ICR mice [4]; [10],3.43 ± 0.09%
same,ECW (empty carcass weight),ICR mice [4]; [10],31.9 ± 1.3 g
same,body composition versus control (in words),ICR mice [4]; [13],no effect on body composition
same,body composition versus control (in words),ICR mice [4]; 0.1% CLA and/or 0.1% NDGA,reduced fat (p<0.209) and increased water and protein
same,body weights (in words),[5]; [13],no difference in body weights
same,body weights (in words),[5]; 0.1% CLA and/or 0.1% NDGA,no difference in body weights
same,LPL activity (in words),[1]; [14],significantly reduced LPL activity
same,"potency in reducing LPL (rank order, in words)",[1],AA861>NDGA>ETYA>Indomethacin>CLA
same,glycerol released from the cell (in words),3T3-L1 adipocytes [2],reduced the glycerol release
same,lipolysis in fat tissue (in words),fat tissue,reduce lipolysis
"CCCCC[C@H](O)/C=C/[C@H]1[C@H](O)CC(=O)[C@@H]1C/C=C\CCCC(=O)O [PGE2, Prostaglandin E2]",LPL activity (in words),[1]; [15],no effect on LPL
"CC(=O)Oc1ccccc1C(=O)O [aspirin, Acetylsalicylic acid]",effect of added aspirin on CLA's effects on body composition (in words),ICR mice [6]; 0.006% or 0.03% aspirin with 0.5% CLA,did not change any of CLA's effects
same,body composition versus control (in words),"ICR mice [6]; 0.5% CLA with or without aspirin, aspirin alone 0.03%",no effect on body composition
same,"body weights, weeks 0 through 3 (in words)",[7],no difference in body weights
same,LPL activity (in words),[1]; [15],no effect on LPL
same,LPL activity (in words),[1]; [14],no effect
Conjugated linoleic acid [CLA],"body weights, weeks 0 through 3 (in words)",[7],no difference in body weights
same,food intake compared to control (in words),"[3]; 0.1% CLA, with or without 0.1% NDGA",reduced food intake only at week 3
same,"food intake, Total",[3]; [10],136.6 ± 1.2 g/mouse
same,"food intake, Week 1",[3]; [12],34.5 ± 0.3 g/mouse
same,"food intake, Week 4",[3]; [12],32.4 ± 0.7 g/mouse
same,% Ash,ICR mice [4]; [10],3.49 ± 0.07%
same,ECW (empty carcass weight),ICR mice [4]; [10],32.0 ± 0.9 g
same,body composition versus control (in words),ICR mice [4]; 0.1% CLA and/or 0.1% NDGA,reduced fat (p<0.197) and increased water and protein
same,body weights (in words),[5]; 0.1% CLA and/or 0.1% NDGA,no difference in body weights
same,LPL activity (in words),[1]; [15],significantly decreased LPL activity
same,LPL activity (in words),[1]; [14],significantly reduced LPL activity
same,"potency in reducing LPL (rank order, in words)",[1],AA861>NDGA>ETYA>Indomethacin>CLA
same,amount of cellular triacylglyceride (TG) (in words),3T3-L1 adipocytes [8],reduced
same,glycerol released from the cell (in words),3T3-L1 adipocytes [2],increased the glycerol released
